Experimental data as given in PubChem BioAssay AID2060506 (Molecular Pharmacology Branch, DTP, NCI, 2025).

System: 598228-144-R-J1-PDC complex spheroid viability
Assay: Anticancer human tumor 598228-144-R-J1-PDC patient-derived serous endometrial adenocarcinoma cell line growth inhibition [GQUAD]
Conditions: for IC50: curve of first compound; for viability, T/C: stronger effect = lower value
Summary of the method: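 Tumor cells were grown as complex spheroids with HUVEC endothelial cells and mesenchymal stem cells as stroma. G-quadruplex stabilizers were combined with targeted agents over half-log dilutions from near the clinical Cmax, or from 10 microM.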

[1] = second compound 0.0316 µM, first compound 0.0316 µM
[2] = second compound 0.0316 µM, first compound 0.316 µM
[3] = second compound 0.1 µM, first compound 0.0316 µM
[4] = second compound 0.1 µM, first compound 0.316 µM
[5] = second compound 0.316 µM, first compound 0.0316 µM
[6] = second compound 0.316 µM, first compound 0.316 µM
[7] = second compound 1 µM, first compound 0.0316 µM
[8] = second compound 1 µM, first compound 0.316 µM
[9] = second compound 3.16 µM, first compound 0.0316 µM
[10] = second compound 3.16 µM, first compound 0.316 µM
[11] = second compound 10 µM, first compound 0.0316 µM
[12] = second compound 10 µM, first compound 0.316 µM
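Note: spheroids exposed to the agents for one week before reading.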
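Throughout, for viability, T/C: percent of vehicle DMSO control viability so 100% = untreated growth.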

CCc1c2c(nc3ccc(O)cc13)-c1cc3c(c(=O)n1C2)COC(=O)[C@]3(O)CC + CN(C)c1ccc(Nc2c3ccc(NC(=O)CCN4CCCC4)cc3nc3cc(NC(=O)CCN4CCCC4)ccc23)cc1
IC50 (second compound 0.0316 µM): 7.57 nM | IC50 (second compound 0.1 µM): 13.5 nM | IC50 (second compound 0.316 µM): 12.1 nM | IC50 (second compound 1 µM): < 0.999 nM | IC50 (second compound 3.16 µM): 15 nM | IC50 (second compound 10 µM): < 0.999 nM | viability, T/C (second compound 0.0316 µM, first compound 0.000999 µM): 68.8% | viability, T/C (second compound 0.0316 µM, first compound 0.00316 µM): 56.2% | viability, T/C (second compound 0.0316 µM, first compound 0.00999 µM): 45.6% | viability, T/C [1]: 39.7% | viability, T/C (second compound 0.0316 µM, first compound 0.0999 µM): 30.5% | viability, T/C [2]: 18.8% | viability, T/C (second compound 0.1 µM, first compound 0.000999 µM): 65.3% | viability, T/C (second compound 0.1 µM, first compound 0.00316 µM): 53.1% | viability, T/C (second compound 0.1 µM, first compound 0.00999 µM): 56.1% | viability, T/C [3]: 41.2% | viability, T/C (second compound 0.1 µM, first compound 0.0999 µM): 25.3% | viability, T/C [4]: 15.5% | viability, T/C (second compound 0.316 µM, first compound 0.000999 µM): 70.2% | viability, T/C (second compound 0.316 µM, first compound 0.00316 µM): 50.4% | viability, T/C (second compound 0.316 µM, first compound 0.00999 µM): 45.7% | viability, T/C [5]: 55.3% | viability, T/C (second compound 0.316 µM, first compound 0.0999 µM): 27.7% | viability, T/C [6]: 16.9% | viability, T/C (second compound 1 µM, first compound 0.000999 µM): 50.5% | viability, T/C (second compound 1 µM, first compound 0.00316 µM): 42% | viability, T/C (second compound 1 µM, first compound 0.00999 µM): 49.9% | viability, T/C [7]: 49% | viability, T/C (second compound 1 µM, first compound 0.0999 µM): 27.7% | viability, T/C [8]: 15.9% | viability, T/C (second compound 3.16 µM, first compound 0.000999 µM): 58.6% | viability, T/C (second compound 3.16 µM, first compound 0.00316 µM): 57.2% | viability, T/C (second compound 3.16 µM, first compound 0.00999 µM): 59.1% | viability, T/C [9]: 37.4% | viability, T/C (second compound 3.16 µM, first compound 0.0999 µM): 26% | viability, T/C [10]: 16.8% | viability, T/C (second compound 10 µM, first compound 0.000999 µM): 60.6% | viability, T/C (second compound 10 µM, first compound 0.00316 µM): 33.6% | viability, T/C (second compound 10 µM, first compound 0.00999 µM): 37.7% | viability, T/C [11]: 45.6% | viability, T/C (second compound 10 µM, first compound 0.0999 µM): 23.5% | viability, T/C [12]: 10.5%

O=c1[nH]cc(F)c(=O)[nH]1 + Cc1[nH]c2ccc(F)cc2c1-c1nc2c3cccnc3c3ncccc3c2[nH]1
IC50 (second compound 0.0316 µM): > 10000 nM | IC50 (second compound 0.1 µM): > 10000 nM | IC50 (second compound 0.316 µM): > 10000 nM | IC50 (second compound 1 µM): > 10000 nM | IC50 (second compound 3.16 µM): < 31.6 nM | IC50 (second compound 10 µM): > 10000 nM | viability, T/C [1]: 106% | viability, T/C (second compound 0.0316 µM, first compound 0.1 µM): 112% | viability, T/C [2]: 90.2% | viability, T/C (second compound 0.0316 µM, first compound 1 µM): 94.3% | viability, T/C (second compound 0.0316 µM, first compound 3.16 µM): 89.6% | viability, T/C (second compound 0.0316 µM, first compound 10 µM): 81.4% | viability, T/C [3]: 97.4% | viability, T/C (second compound 0.1 µM, first compound 0.1 µM): 102% | viability, T/C [4]: 85.1% | viability, T/C (second compound 0.1 µM, first compound 1 µM): 109% | viability, T/C (second compound 0.1 µM, first compound 3.16 µM): 91.8% | viability, T/C (second compound 0.1 µM, first compound 10 µM): 93.9% | viability, T/C [5]: 98.6% | viability, T/C (second compound 0.316 µM, first compound 0.1 µM): 99.9% | viability, T/C [6]: 74.9% | viability, T/C (second compound 0.316 µM, first compound 1 µM): 85.8% | viability, T/C (second compound 0.316 µM, first compound 3.16 µM): 70.4% | viability, T/C (second compound 0.316 µM, first compound 10 µM): 67.2% | viability, T/C [7]: 57.5% | viability, T/C (second compound 1 µM, first compound 0.1 µM): 66.9% | viability, T/C [8]: 58% | viability, T/C (second compound 1 µM, first compound 1 µM): 55.5% | viability, T/C (second compound 1 µM, first compound 3.16 µM): 54.5% | viability, T/C (second compound 1 µM, first compound 10 µM): 60.7% | viability, T/C [9]: 38.1% | viability, T/C (second compound 3.16 µM, first compound 0.1 µM): 39.2% | viability, T/C [10]: 49.5% | viability, T/C (second compound 3.16 µM, first compound 1 µM): 48.1% | viability, T/C (second compound 3.16 µM, first compound 3.16 µM): 48.8% | viability, T/C (second compound 3.16 µM, first compound 10 µM): 47% | viability, T/C [11]: 66.8% | viability, T/C (second compound 10 µM, first compound 0.1 µM): 62.6% | viability, T/C [12]: 63.8% | viability, T/C (second compound 10 µM, first compound 1 µM): 60.8% | viability, T/C (second compound 10 µM, first compound 3.16 µM): 57.4% | viability, T/C (second compound 10 µM, first compound 10 µM): 54.2%
